This data set is described as follows: Storage stability in pet chew matrix. Particulars: water activity (aw) 0.4, 4 weeks of storage. It is filed as physicochemical. As to the method:
Stability of Bacillus Strains 1-3 was measured in a pet chew matrix with water activity (aw) level of 0.4, which is typically growth-prohibitive for other bacteria such as Lactobacillus. While Lactobacillus viability declined over 4 weeks of storage, Bacillus Strains 1-3 remained viable for 4 weeks, with loss of viability being less than <0.5 log 10 (FIGS. 3B and 3D).

As for Lactobacillus, the viability over storage entry was “declined”.

The record behind these values is patent US20240299469A1, “PRODUCTION OF INDOLE-DERIVED METABOLITES BY SHELF-STABLE COMMUNITIES OF SAFE BACTERIA” (Imvela Corp., priority 2023, published 2024).
